Here are results for 81 molecules from the METLIN SMRT retention time set (Domingo-Almenara et al. 2019).

Structures are written as SMILES.

The nature of the series: gradient 5% acetonitrile 3 min, to 50% in 2 min, to 85% in 15 min, held 3 min, 100 µL/min. The conditions noted are these: column: Zorbax Extend-C18 2.1 x 50 mm; eluents: water / acetonitrile, 0.1% formic acid. The essentials: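 Over 3 months, pure standards in mixtures of ~100 molecules were run by HPLC coupled to a quadrupole time-of-flight mass spectrometer in positive and negative ionization mode. The column was a Zorbax Extend-C18 (2.1 × 50 mm, 1.8 μm) at 100 μL/min, eluted with water and acetonitrile each holding 0.1% formic acid, with 40 μL dead and 900 μL dwell volumes. Retention time was determined from adduct peaks chosen by software and checked manually.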
Molecule `CCCN1C(=O)c2cc(S(=O)(=O)Nc3ccc(F)c(C)c3)ccc2Oc2cccnc21` had an RP-LC retention time of 1100 s. In the case of `CCC(C)NC(=O)N1CCN(Cc2nc3cccnc3n2-c2cc(C)cc(C)c2)CC1` (stereo unspecified), the RP-LC retention time is 672 s. In turn, `CC(C)c1ccc(C(=O)Nc2ccc3c(c2)Sc2ncccc2C(=O)N3C)cc1` gave an RP-LC retention time of 950 s. For `CCn1c(=O)c2c(cc(C)n2C)n(CC(=O)Nc2ccc(F)cc2F)c1=O`, the RP-LC retention time came to 764 s. `O=C(Cn1c(N2CCCCC2)nc2ccccc2c1=O)NCc1ccc(Cl)cc1`: the RP-LC retention time turned out to be 946 s. On to `CN(C)c1ccc(NC(=O)Cn2nc3c(Oc4ccccc4Cl)nccn3c2=O)cc1`, for which the RP-LC retention time came to 676 s. Regarding `O=C(Cn1nc2nc(Nc3ccc(F)cc3)ccn2c1=O)N1CCCC1`, the RP-LC retention time came out at 621 s. On to `O=C(Cc1nnc(-c2ccc3ncccc3c2)o1)NCc1cccc(Cl)c1`, for which the RP-LC retention time turned out to be 722 s. For `CCn1c(=O)c(N2CCN(C(=O)NCc3ccco3)CC2)nc2ccccc21`, the RP-LC retention time is 811 s. To `CCc1ccc(-c2ccc(=O)n(CCc3nc(-c4cccc(C)c4)no3)n2)cc1` belongs 1180 s. For `CS(=O)(=O)N1CCN=C1SCc1ccc(Cl)c(Cl)c1` the value was 889 s. For `CC(C)N1CCN(Cc2nc(Cn3ccn4nc(-c5ccccc5)cc4c3=O)no2)CC1` the value was 647 s; for `Cc1cc(C)cc(NC(=O)N2CC(c3nc(C(C)C)nn3C)C2)c1`, 718 s.

`COCC(=O)N(C1CCOCC1)C1CCN(S(=O)(=O)c2ccccc2)CC1` yielded an RP-LC retention time of 727 s.

For the molecule `O=c1n(CCOc2ccc(F)cc2)nc2c(S(=O)(=O)N3CCCCC3)cccn12`, the RP-LC retention time is 894 s. Turning to `Nc1ccccc1-n1nc2ccc3ccccc3c2n1`, the RP-LC retention time stood at 1220 s. Regarding `Cc1cc2c(c(=O)n(-c3ccc(F)cc3)c(=O)n2CC(=O)Nc2cccc(F)c2)n1C`, the RP-LC retention time came to 840 s. `COc1ccc(-c2noc(-c3cccn(CC(=O)Nc4ccc5c(c4)OCO5)c3=O)n2)cc1OC` had an RP-LC retention time of 741 s.

`Cc1ccc(Cl)cc1N1CCN(c2cc(C(=O)O)c3cc(NC(=O)C(C)C)ccc3n2)CC1`: the RP-LC retention time stood at 746 s. As for `Cc1nn(C)cc1S(=O)(=O)N1CCN(C(=O)c2ccco2)CC1`, the RP-LC retention time was found to be 626 s.

In the case of `CC(NC(=O)Cc1cn(C)c2ncccc12)c1ccc(F)cc1` (stereo unspecified), the RP-LC retention time is 695 s. In turn, `O=C(Nc1cccc(-c2nc3ncccc3o2)c1)[C@@H]1OCCN(C2CC2)[C@H]1c1ccccc1` displayed an RP-LC retention time of 678 s. The molecule `CCN1C(=O)C2(C(C#N)=C(N)Oc3n[nH]c(-c4ccccc4)c32)c2ccccc21` (stereo unspecified) showed an RP-LC retention time of 733 s. `COC(=O)C(N)Cc1ccc(Cl)cc1` (stereo unspecified) yielded an RP-LC retention time of 653 s. Molecule `Cc1cnn(CC(=O)N2CCC3(CC2)CC(C)(O)CCO3)c1` (stereo unspecified) had an RP-LC retention time of 603 s. `O=C(CN1CCN(Cc2ccc(F)cc2)C1=O)NCc1ccc(F)cc1Cl` showed an RP-LC retention time of 844 s. Turning to `CC(C)CCC(=O)N1CCc2nc(N3CCN(C)CC3)sc2C1`, the RP-LC retention time was found to be 609 s. `CC(=O)N1CCc2cc(C(=O)N3CCCC3)ccc21` had an RP-LC retention time of 869 s. For `CC1CN=C2C=C(N3CCN(C(=O)Nc4ccccc4Cl)CC3)N=CN21` (stereo unspecified) the value was 618 s.

For the molecule `COCCn1cc(CCNC(=O)Nc2ccc(Cl)cc2)c2cccnc21`, the RP-LC retention time amounted to 760 s. For the molecule `Cc1ccc(CNc2c(-c3ccc(Cl)cc3)nc3ncccn23)cc1`, the RP-LC retention time was 867 s. For `Cc1ccc(-c2cn3c(CC(=O)N4c5ccccc5CC4C)csc3n2)cc1C` (stereo unspecified), the RP-LC retention time came out at 965 s. Molecule `COc1ccc(NC(=O)N2CCC3(CC2)N=C(c2ccc(F)cc2)C(=O)N3)c(OC)c1` displayed an RP-LC retention time of 773 s. With `CC1(C(=O)NCc2ccc(Br)cc2)Oc2cccnc2NC1=O` (stereo unspecified), the RP-LC retention time was found to be 733 s. `Cc1cc(N2CCN(C)CC2)nc2ccc(NC(=S)N(C)Cc3ccccc3)cc12` gave an RP-LC retention time of 592 s. `Cc1nnc(NC(=O)C2CCN(C(=O)NC3CC3)CC2)s1` yielded an RP-LC retention time of 582 s.

As to `CCN1CCCn2nc(C3CCN(C(=O)C4CCCC4)CC3)cc2C1=O`, the RP-LC retention time was found to be 686 s.

Consider `Cc1cccc(N2CCN(C(=O)c3cn4ccccc4n3)CC2)c1C`, for which the RP-LC retention time amounted to 776 s. To `Cc1cccc(NC(=O)N2C[C@@H](F)C[C@H]2C(=O)N2CCc3ccccc3C2)c1C` belongs 811 s. As to `COC(=O)c1ccc2c(=O)n(-c3cc(OC)cc(OC)c3)c(N3CCC(C(N)=O)CC3)nc2c1`, the RP-LC retention time is 736 s. To `COc1ccc(NC(=O)C2CCCN(C(=O)C3Sc4ccccc4NC3=O)C2)cc1` (stereo unspecified) belongs 750 s; to `COCCSc1nnc(NC(=O)C2CCN(C(=O)c3ccccc3Cl)CC2)s1`, 743 s; to `Cc1ccc(NC(=O)Cn2cnc(C)c(C)c2=O)c(F)c1`, 667 s. Molecule `CC(C)CNS(=O)(=O)c1cc(-c2nc(CC(C)C)cs2)cs1` came in with an RP-LC retention time of 1170 s. For `O=C(O)c1nc(N2CCCC2)c2oc3ccccc3c2n1` the value was 617 s.

As to `Cc1nnc(SCC(=O)c2ccc3c(c2)OCCO3)s1`, the RP-LC retention time was 746 s. Molecule `COc1cc(OC)cc(-c2nnc(-c3ccccc3Cl)o2)c1` gave an RP-LC retention time of 1070 s. The molecule `Cc1ncc2c(n1)CCCN(CC(=O)NCC1CC1)C2=O` had an RP-LC retention time of 582 s.

The molecule `Cc1cc(N2CCCCC2)nc(N2CCN(C(=O)c3ccc(C(C)(C)C)cc3)CC2)n1` displayed an RP-LC retention time of 855 s. `Cn1c(C2CCN(C(=O)Nc3cccc(Cl)c3)CC2)cc(=O)n2nccc12` displayed an RP-LC retention time of 693 s. As to `CN(CCNC(=O)c1cccc(N2CCNC(c3ccccc3)C2)n1)C1CCCCC1` (stereo unspecified), the RP-LC retention time was found to be 573 s.

`COC(=O)C1=C(C)NC2=C(C(=O)c3ccccc32)C1c1cccs1` (stereo unspecified) registered an RP-LC retention time of 918 s. On to `Fc1ccc(-c2n[nH]c(C3CCN(C4CCCC4)CC3)n2)cc1`, for which the RP-LC retention time turned out to be 611 s.

`O=S(=O)(Nc1ccc(F)cc1Cl)c1c[nH]c2ncccc12` showed an RP-LC retention time of 740 s. `O=C1COc2ccc(S(=O)(=O)N3CCCC3C(=O)NCc3ccccc3Cl)cc2N1` (stereo unspecified) came in with an RP-LC retention time of 784 s. With `CN(C)c1nc2ncn3c(=O)n(CC(=O)Nc4cccc(F)c4)nc3c2s1`, the RP-LC retention time amounted to 686 s. Regarding `Cc1sc2ccn(CC(C)C)c(=O)c2c1C(=O)N1CCCCCC1`, the RP-LC retention time was 897 s.

Regarding `Cc1noc(C)c1CCNC(=O)c1cc2c(-c3cccs3)nn(-c3ccccc3)c2n1C`, the RP-LC retention time worked out at 1000 s.

Molecule `CSc1cccc(NC(=O)N2CCC(N3CCN(Cc4cccc(F)c4)C(=O)C3=O)CC2)c1` yielded an RP-LC retention time of 779 s. In the case of `CCOc1ccc(NC(=O)Cn2cnc3nc(N4CCC(C(=O)NC5CC5)CC4)sc3c2=O)cc1`, the RP-LC retention time was 675 s. Molecule `O=C(NC1CC1)C1(c2ccc(F)cc2)CC1` gave an RP-LC retention time of 779 s. `CCCCOC(=O)c1ccc(NC(=O)c2ccc(N3CCCCS3(=O)=O)cc2)cc1` had an RP-LC retention time of 976 s. The molecule `CC(C)(C)C(=O)NC1CCN(C(=O)c2ccccc2)C1` (stereo unspecified) returned an RP-LC retention time of 676 s. For `Fc1ccc(-c2noc(Cc3nc(-c4ccc(Br)cc4)cs3)n2)cc1` the value was 1340 s; for `CCOc1ccc(C(=O)NC(C(=O)Nc2nc3ccccc3[nH]2)C(C)CC)cc1OCC` (stereo unspecified), 792 s; for `Cc1noc(C)c1-c1ccc(S(=O)(=O)Nc2ccc(C(C)C)cc2)cc1`, 1060 s. The molecule `Brc1cccc(-c2noc(-c3nc(-c4ccncc4)no3)n2)c1` had an RP-LC retention time of 1150 s.

`O=c1c2c(CO)c(-c3ccccc3)nn2ccn1Cc1ccccc1` yielded an RP-LC retention time of 896 s. Turning to `CCCc1cc(N2CCN(C(=O)c3cccs3)CC2)nc2nnc(C)n12`, the RP-LC retention time amounted to 613 s. In turn, `CCc1nnc(NC(=O)CN2C(=O)C3CCCCN3c3ccc(S(=O)(=O)N(C)C)cc32)s1` (stereo unspecified) gave an RP-LC retention time of 800 s.

Regarding `C=CCNC(=O)C1CCCN(S(=O)(=O)c2cc(OC)ccc2OC)C1` (stereo unspecified), the RP-LC retention time was determined as 723 s.

`O=c1cc(-c2ccc(F)cc2)ncn1Cc1cccc(C(F)(F)F)c1` gave an RP-LC retention time of 940 s. In the case of `CCCNC(=O)c1cc(C)nc2c(C)cc(C)cc12`, the RP-LC retention time stood at 650 s. As for `CCCCC(=O)Nc1nc(-c2ccc3c(c2)N(C)C(=O)CO3)cs1`, the RP-LC retention time came to 900 s. For `CC1CCN(C(=O)c2cc3c(s2)CCC(C(=O)Nc2ccc4c(c2)OCCO4)C3)CC1` (stereo unspecified) the value was 947 s.

The molecule `COCCCNC(=O)Cn1c(=O)c2cccn2c2ccc(F)cc21` yielded an RP-LC retention time of 689 s.

As for `CCOC(=O)c1nc(NCCc2ccc(OCC)c(OCC)c2)c2ccccc2n1`, the RP-LC retention time is 801 s. To `CCn1cc(CN2CCC(C(=O)NCc3ccc(C)o3)CC2)c2ccccc21` belongs 690 s; to `O=S(=O)(c1cccc(C(F)(F)F)c1)N1CCc2nc(-c3ccc(F)cc3)ncc2C1`, 1170 s. With `O=C(CCC(=O)N1CCN(c2nc3cccnc3s2)CC1)N1CCCC1`, the RP-LC retention time was found to be 612 s. As to `CCn1nc2c(S(=O)(=O)N3CCN(c4ccc(F)cc4)CC3)cccn2c1=O`, the RP-LC retention time is 1250 s.
